In ChEMBL document CHEMBL4673218, “Kojyl cinnamate esters are peroxisome proliferator-activated receptor α/γ dual agonists” (Bioorg Med Chem, 2018):
pEC50, pKi: −log10 of the molar value. Activity calls are given as the source filed them. The calls are words filed in the database; no cut-off is given here.

Legend:
[1] = Induction of adipogenesis in human AT-MSC assessed as adiponectin secretion at 30 uM in IDX medium incubated for 5 days by ELISA (reference value: 100 +/- 15 pg/ml); type: functional, Adipose tissue derived mesenchymal stem cell; conditions: time 5 day
[2] = target: T1, PPAR alpha/gamma (Homo sapiens) (UniProt P37231+Q07869); experiment: Agonist activity at PPARalpha/PPARgamma in human AT-MSC cells assessed as upregulation of HMGCR mRNA at 10 uM incubated for 3 days by qRT-PCR analysis; type: cell-based; conditions: Adipose tissue derived mesenchymal stem cell, filed as agonist, time 3.0 day
[3] = target: T1, PPAR alpha/gamma (Homo sapiens); experiment: Agonist activity at PPARalpha/PPARgamma in human AT-MSC cells assessed as upregulation of FABP4 mRNA at 10 uM incubated for 3 days by qRT-PCR analysis; type: cell-based; conditions: Adipose tissue derived mesenchymal stem cell, filed as agonist, time 3.0 day
[4] = target: T1, PPAR alpha/gamma (Homo sapiens); experiment: Agonist activity at PPARalpha/PPARgamma in human AT-MSC cells assessed as upregulation of adiponectin mRNA at 10 uM incubated for 3 days by qRT-PCR analysis; type: cell-based; conditions: Adipose tissue derived mesenchymal stem cell, filed as agonist, time 3.0 day
NHEK [5] = experiment: Inhibition of UVB-induced MMP1 level in human NHEK cells at 10 uM incubated for 24 hrs by ELISA; type: functional, cell-based
NHEK [6] = experiment: Inhibition of UVB-induced PGE2 level in human NHEK cells at 10 uM incubated for 24 hrs by ELISA; type: functional, cell-based
NHEK [7] = experiment: Inhibition of UVB-induced MMP1 mRNA in human NHEK cells at 10 uM incubated for 24 hrs by qRT-PCR analysis; type: functional, cell-based
NHEK [8] = experiment: Inhibition of UVB-induced PTGS2 mRNA in human NHEK cells at 10 uM incubated for 24 hrs by qRT-PCR analysis; type: functional, cell-based
[9] = target: T1, PPAR alpha/gamma (Homo sapiens); experiment: Agonist activity at PPARalpha/PPARgamma in human NHEK cells assessed as upregulation of FASN mRNA at 10 uM incubated for 3 days by qRT-PCR analysis; type: cell-based; conditions: time 3.0 day
[10] = target: T1, PPAR alpha/gamma (Homo sapiens); experiment: Agonist activity at PPARalpha/PPARgamma in human NHEK cells assessed as upregulation of ACACB mRNA at 10 uM incubated for 3 days by qRT-PCR analysis; type: cell-based; conditions: time 3.0 day
[11] = target: T1, PPAR alpha/gamma (Homo sapiens); experiment: Agonist activity at PPARalpha/PPARgamma in human NHEK cells assessed as upregulation of HMGCR mRNA at 10 uM incubated for 3 days by qRT-PCR analysis; type: cell-based; conditions: time 3.0 day
[12] = target: T1, PPAR alpha/gamma (Homo sapiens); experiment: Agonist activity at PPARalpha/PPARgamma in human AT-MSC cells assessed as upregulation of FADS2 mRNA at 10 uM incubated for 3 days by qRT-PCR analysis; type: cell-based; conditions: Adipose tissue derived mesenchymal stem cell, filed as agonist, time 3.0 day
[13] = target: T1, PPAR alpha/gamma (Homo sapiens); experiment: Agonist activity at PPARalpha/PPARgamma in human AT-MSC cells assessed as upregulation of SCD1 mRNA at 10 uM incubated for 3 days by qRT-PCR analysis; type: cell-based; conditions: Adipose tissue derived mesenchymal stem cell, filed as agonist, time 3.0 day
[14] = target: T1, PPAR alpha/gamma (Homo sapiens); experiment: Agonist activity at PPARalpha/PPARgamma in human AT-MSC cells assessed as upregulation of FASN mRNA at 10 uM incubated for 3 days by qRT-PCR analysis; type: cell-based; conditions: Adipose tissue derived mesenchymal stem cell, time 3.0 day
[15] = target: T1, PPAR alpha/gamma (Homo sapiens); experiment: Agonist activity at PPARalpha/PPARgamma in human AT-MSC cells assessed as upregulation of ACACB mRNA at 10 uM incubated for 3 days by qRT-PCR analysis; type: cell-based; conditions: Adipose tissue derived mesenchymal stem cell, time 3.0 day
[16] = target: T1, PPAR alpha/gamma (Homo sapiens); experiment: Agonist activity at PPARalpha/PPARgamma in human AT-MSC cells assessed as upregulation of HMGCS2 mRNA at 10 uM incubated for 3 days by qRT-PCR analysis; type: cell-based; conditions: Adipose tissue derived mesenchymal stem cell, filed as agonist, time 3.0 day
[17] = Induction of adipogenesis in human AT-MSC assessed as adiponectin secretion in IDX medium incubated for 5 days by ELISA; type: functional; conditions: adipose tissue derived mesenchymal stem cell
NHEK [18] = experiment: Inhibition of UVB-induced MMP1 level in human NHEK cells at 1 uM incubated for 24 hrs by ELISA; type: functional, cell-based
NHEK [19] = experiment: Inhibition of UVB-induced PGE2 level in human NHEK cells at 1 uM incubated for 24 hrs by ELISA; type: functional, cell-based
NHEK [20] = experiment: Inhibition of UVB-induced MMP1 mRNA in human NHEK cells at 1 uM incubated for 24 hrs by qRT-PCR analysis; type: functional, cell-based
NHEK [21] = experiment: Inhibition of UVB-induced PTGS2 mRNA in human NHEK cells at 1 uM incubated for 24 hrs by qRT-PCR analysis; type: functional, cell-based
[22] = tested on: Adipose tissue derived mesenchymal stem cell; experiment: Induction of adipogenesis in human AT-MSC cells assessed as increase in lipid droplet at 30 uM in IDX medium incubated for 5 days by Oil Red O staining based inverted phase microscopy relative to IDX control; type: functional; conditions: time 5.0 day
[23] = Induction of adipogenesis in human AT-MSC assessed as adiponectin secretion at 30 uM in IDX medium incubated for 5 days by ELISA relative to IDX control; type: functional, Adipose tissue derived mesenchymal stem cell; conditions: time 5 day
[24] = tested on: Adipose tissue derived mesenchymal stem cell; experiment: Induction of adipogenesis in human AT-MSC cells assessed as increase in intracellular lipid accumulation at 30 uM in IDX medium incubated for 5 days by Oil Red O staining based inverted phase microscopy relative to IDX control; type: functional; conditions: time 5.0 day
[25] = target: T2, Peroxisome proliferator-activated receptor gamma (Homo sapiens) (UniProt P37231); experiment: (§1) Binding affinity to human recombinant PPARgamma by Cheng-Prusoff equation based competitive binding TR-FRET assay; conditions: filed as agonist
T2 sequence (whole entry): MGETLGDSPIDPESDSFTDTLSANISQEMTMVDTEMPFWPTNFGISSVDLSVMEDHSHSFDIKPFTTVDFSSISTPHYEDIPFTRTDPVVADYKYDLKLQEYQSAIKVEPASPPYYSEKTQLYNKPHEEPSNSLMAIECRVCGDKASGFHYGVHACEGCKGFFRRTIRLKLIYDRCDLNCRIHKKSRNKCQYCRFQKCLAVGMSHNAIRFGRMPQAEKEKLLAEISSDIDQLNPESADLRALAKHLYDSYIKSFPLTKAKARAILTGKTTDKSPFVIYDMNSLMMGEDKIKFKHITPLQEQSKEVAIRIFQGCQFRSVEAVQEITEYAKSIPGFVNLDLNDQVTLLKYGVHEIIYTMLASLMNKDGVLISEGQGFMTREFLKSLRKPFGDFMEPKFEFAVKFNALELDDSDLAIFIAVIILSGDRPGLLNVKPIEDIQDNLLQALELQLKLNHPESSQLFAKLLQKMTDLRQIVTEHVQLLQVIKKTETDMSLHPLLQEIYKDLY

[26] = target: T3, Peroxisome proliferator-activated receptor gamma (Homo sapiens, UniProt P37231); experiment: as §1
T3 sequence (P37231 whole entry): T2 sequence (whole entry)

[27] = target: T4, Peroxisome proliferator-activated receptor alpha (Homo sapiens) (UniProt Q07869); experiment: (§2) Binding affinity to human recombinant PPARalpha by Cheng-Prusoff equation based competitive binding TR-FRET assay; conditions: filed as agonist
T4 sequence (whole entry): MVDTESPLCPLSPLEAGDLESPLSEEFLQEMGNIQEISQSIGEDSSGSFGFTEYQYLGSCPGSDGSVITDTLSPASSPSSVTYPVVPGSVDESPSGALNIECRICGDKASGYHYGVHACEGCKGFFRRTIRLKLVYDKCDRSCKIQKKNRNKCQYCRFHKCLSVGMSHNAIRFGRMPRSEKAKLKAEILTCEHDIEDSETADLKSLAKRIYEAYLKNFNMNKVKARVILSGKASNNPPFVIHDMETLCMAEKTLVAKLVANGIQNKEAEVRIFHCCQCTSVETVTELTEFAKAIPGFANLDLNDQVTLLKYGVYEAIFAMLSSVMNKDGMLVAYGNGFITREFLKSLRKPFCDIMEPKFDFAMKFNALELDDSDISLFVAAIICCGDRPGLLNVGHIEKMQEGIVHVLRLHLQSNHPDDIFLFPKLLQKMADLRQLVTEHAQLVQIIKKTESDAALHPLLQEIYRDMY

[28] = target: T5, Peroxisome proliferator-activated receptor alpha (Homo sapiens, UniProt Q07869); experiment: as §2
T5 sequence (Q07869 whole entry): T4 sequence (whole entry)

[29] = target: T1, PPAR alpha/gamma (Homo sapiens); experiment: Agonist activity at PPARalpha/PPARgamma in human NHEK cells assessed as upregulation of SCD1 mRNA at 10 uM incubated for 3 days by qRT-PCR analysis; type: cell-based; conditions: filed as agonist, time 3.0 day
[30] = target: T1, PPAR alpha/gamma (Homo sapiens); experiment: Agonist activity at PPARalpha/PPARgamma in human NHEK cells assessed as upregulation of FADS1 mRNA at 10 uM incubated for 3 days by qRT-PCR analysis; type: cell-based; conditions: filed as agonist, time 3.0 day
[31] = target: T1, PPAR alpha/gamma (Homo sapiens); experiment: Agonist activity at PPARalpha/PPARgamma in human NHEK cells assessed as upregulation of HMGCS2 mRNA at 10 uM incubated for 3 days by qRT-PCR analysis; type: cell-based; conditions: filed as agonist, time 3.0 day
[32] = target: T1, PPAR alpha/gamma (Homo sapiens); experiment: Agonist activity at PPARalpha/PPARgamma in human NHEK cells assessed as upregulation of FADS2 mRNA at 10 uM incubated for 3 days by qRT-PCR analysis; type: cell-based; conditions: filed as agonist, time 3.0 day
[33] = Induction of adipogenesis in human AT-MSC assessed as adiponectin secretion at 300 uM in IDX medium incubated for 5 days by ELISA (reference value: 100 +/- 15 pg/ml); type: functional, Adipose tissue derived mesenchymal stem cell; conditions: time 5 day

`COc1cc(/C=C/C(=O)OCc2cc(=O)c(O)co2)cc(OC)c1` showed an Activity [1] of 67 pg/mL.
For `Cc1cccc(Nc2cc(Cl)nc(SCC(=O)O)n2)c1C`, the Activity [2] was “Active”, the Activity [3] was “Active” and the Activity [4] was “Active”. For the same compound, the inhibition (NHEK [5]) was “Active”, the inhibition (NHEK [6]) was “Active” and the inhibition (NHEK [7]) was “Active”. For the same compound, the inhibition (NHEK [8]) was “Active”, the Activity [9] was “inactive” and the Activity [10] was “inactive”. The Activity [11] was “inactive”, the Activity [12] was “Active” and the Activity [13] was “Active”. For the same compound, the Activity [14] was “inactive”, the Activity [15] was “inactive” and the fold change (FC) [16] was 4.53.
With `Cc1c(C)c2c(c(C)c1O)CCC(C)(COc1ccc(CC3SC(=O)NC3=O)cc1)O2` (configuration not stated) [TROGLITAZONE] the pEC50 [17] was 6.07, the inhibition (NHEK [18]) was “Active” and the inhibition (NHEK [19]) was “inactive”. For the same compound, the inhibition (NHEK [20]) was “Active” and the inhibition (NHEK [21]) was “inactive”.
For `COc1cc(/C=C/C(=O)OCc2cc(=O)c(O)co2)cc(OC)c1OC`, the Activity [1] was 137 pg/mL.
`COc1ccc(/C=C/C(=O)OCc2cc(=O)c(O)co2)cc1OC` gave an Activity [1] of 120 pg/mL.
Work on `COc1ccc(/C=C/C(=O)OCc2cc(=O)c(O)co2)c(OC)c1OC` yielded an Activity [1] of 137 pg/mL.
With `COc1ccccc1/C=C/C(=O)OCc1cc(=O)c(O)co1` the pEC50 [17] was 4.69, the Activity [22] was “Active” and the “fold change (FC)” value [23] was 2.21. For the same compound, the Activity [24] was “Active” and the Activity [1] was 221 pg/mL.
For `COc1cccc(/C=C/C(=O)OCc2cc(=O)c(O)co2)c1OC`, the Activity [2] was “Active”, the Activity [3] was “Active” and the Activity [4] was “Active”. For the same compound, the Activity [25] was “Dose-dependent effect”, the pKi [26] was 5.17 and the Activity [27] was “Dose-dependent effect”. The pKi [28] was 5.10, the pEC50 [17] was 4.83 and the Activity [22] was “Active”. For the same compound, the “fold change (FC)” value [23] was 2.81, the Activity [24] was “Active” and the Activity [1] was 281 pg/mL. For the same compound, the inhibition (NHEK [5]) was “Active”, the inhibition (NHEK [6]) was “Active” and the inhibition (NHEK [7]) was “Active”. For the same compound, the inhibition (NHEK [8]) was “Active”, the Activity [9] was “inactive” and the Activity [10] was “inactive”. For the same compound, the Activity [11] was “inactive”, the Activity [29] was “Active” and the Activity [30] was “Active”. The Activity [31] was “Active”, the Activity [32] was “Active” and the Activity [12] was “Active”. For the same compound, the Activity [13] was “Active”, the Activity ([14]; filed as agonist) was “Active” and the Activity ([15]; filed as agonist) was “Active”. The Activity [16] was “Active”.
Work on `CC(=O)Oc1ccccc1C(=O)O` [ASPIRIN] yielded an Activity [33] of 197 pg/mL.
Work on `O=C(/C=C/c1ccc2c(c1)OCO2)OCc1cc(=O)c(O)co1` yielded an Activity [1] of 164 pg/mL.
`COc1cc(OC)c(OC)cc1/C=C/C(=O)OCc1cc(=O)c(O)co1` showed an Activity [1] of 103 pg/mL.
`COc1cc(OC)c(/C=C/C(=O)OCc2cc(=O)c(O)co2)c(OC)c1` showed an Activity [1] of 87 pg/mL.
With `COc1cccc(/C=C/C(=O)OCc2cc(=O)c(O)co2)c1` the pEC50 [17] was 4.44, the Activity [22] was “Active” and the “fold change (FC)” value [23] was 2.65. The Activity [24] was “Active” and the Activity [1] was 265 pg/mL.
For `COc1ccc(/C=C/C(=O)OCc2cc(=O)c(O)co2)cc1`, the Activity [1] was 138 pg/mL.
